Reference: PubChem BioAssay AID330 (DTP/NCI, 2004)
Where “and” joins values, the source holds several entries; their conditions need not be identical. Equal entries are not always repeated. Toxic doses and inconclusive results are not listed. How the source made its calls: active means survival T/C of 150% or more; inactive means T/C below 125% in these data.

Tested on: P388 leukemia ip, CD2F1 mice, survival T/C
Assay: NCI In Vivo Anticancer Drug Screen. Data for tumor model P388 Leukemia (intraperitoneal) in CD2F1 (CDF1) mice
Conditions: endpoint: median survival time, higher = longer survival
Description: The antitumor activity of compounds was measured in mice bearing transplantable tumors. Survival or tumor size were measured and the results are expressed as the measurement made in the treated group (T) divided by the measurement made in the vehicle treated control group (C). The tumor model used in this assay is P388 Leukemia (intraperitoneal) in CD2F1 (CDF1) mice

[1] = dose: 50.0 mg/kg/injection, schedule: Q01DX005 (ip), vehicle: Klucel (hydroxypropylcellulose) (HPC)
[2] = dose: 100.0 mg/kg/injection, schedule: Q01DX005 (ip), vehicle: Klucel (hydroxypropylcellulose) (HPC)
[3] = dose: 200.0 mg/kg/injection, schedule: Q01DX005 (ip), vehicle: Klucel (hydroxypropylcellulose) (HPC)
[4] = dose: 100.0 mg/kg/injection, schedule: Q04DX002 (ip), vehicle: saline
[5] = dose: 200.0 mg/kg/injection, schedule: Q04DX002 (ip), vehicle: saline
[6] = dose: 50.0 mg/kg/injection, schedule: Q01DX005 (ip), vehicle: saline with Tween-80
[7] = dose: 100.0 mg/kg/injection, schedule: Q01DX005 (ip), vehicle: saline with Tween-80
[8] = dose: 200.0 mg/kg/injection, schedule: Q01DX005 (ip), vehicle: saline with Tween-80
[9] = dose: 6.25 mg/kg/injection, schedule: Q01DX005 (ip), vehicle: saline with Tween-80
[10] = dose: 12.5 mg/kg/injection, schedule: Q01DX005 (ip), vehicle: saline with Tween-80
[11] = dose: 25.0 mg/kg/injection, schedule: Q01DX005 (ip), vehicle: saline with Tween-80
[12] = dose: 100.0 mg/kg/injection, schedule: Q04DX003 (ip), vehicle: saline

Measured: T/C

COC(=O)C1=C(C(=O)OC)C2(C)NC1(C)c1c(C)ccc(C)c12
inactive: dose: 42.5 mg/kg/injection, schedule: Q01DX001 (ip), vehicle: saline with Tween-80 103 % of control | dose: 85.0 mg/kg/injection, schedule: Q01DX001 (ip), vehicle: saline with Tween-80 94 % of control | dose: 170.0 mg/kg/injection, schedule: Q01DX001 (ip), vehicle: saline with Tween-80 89 % of control

C1CCC2[N-]CC3CCCCC3[N-]CC3CCCCC3[N-]CC3CCCCC3[N-]CC2C1.[Cu] (centres undefined)
inactive: dose: 0.39 mg/kg/injection, schedule: Q01DX009 (ip), vehicle: saline 105 % of control | dose: 0.78 mg/kg/injection, schedule: Q01DX009 (ip), vehicle: Klucel (hydroxypropylcellulose) (HPC) 121 % of control | dose: 0.78 mg/kg/injection, schedule: Q01DX009 (ip), vehicle: saline 123 % of control | dose: 1.56 mg/kg/injection, schedule: Q01DX009 (ip), vehicle: saline 123 % of control | dose: 1.56 mg/kg/injection, schedule: Q01DX009 (oral), vehicle: Klucel (hydroxypropylcellulose) (HPC) 89 % of control | dose: 3.12 mg/kg/injection, schedule: Q01DX009 (oral), vehicle: Klucel (hydroxypropylcellulose) (HPC) 99 % of control | dose: 6.25 mg/kg/injection, schedule: Q01DX009 (oral), vehicle: Klucel (hydroxypropylcellulose) (HPC) 99 % of control | dose: 12.5 mg/kg/injection, schedule: Q01DX009 (ip), vehicle: Klucel (hydroxypropylcellulose) (HPC) 119 % of control | dose: 12.5 mg/kg/injection, schedule: Q01DX009 (oral), vehicle: Klucel (hydroxypropylcellulose) (HPC) 93 % of control and 98 % of control | dose: 25.0 mg/kg/injection, schedule: Q01DX009 (oral), vehicle: Klucel (hydroxypropylcellulose) (HPC) 106 % of control and 91 % of control | dose: 50.0 mg/kg/injection, schedule: Q01DX009 (oral), vehicle: Klucel (hydroxypropylcellulose) (HPC) 93 % of control | dose: 100.0 mg/kg/injection, schedule: Q01DX009 (oral), vehicle: Klucel (hydroxypropylcellulose) (HPC) 93 % of control and 98 % of control | dose: 200.0 mg/kg/injection, schedule: Q01DX009 (oral), vehicle: Klucel (hydroxypropylcellulose) (HPC) 88 % of control

CC(=O)N=c1c(Br)cc(Br)c(C)n1O
inactive: [1] 93 % of control | [2] 99 % of control | [3] 102 % of control

OCC1CC(O)CN2CCc3c([nH]c4ccccc34)C2C1 (centres undefined)
inactive: dose: 12.5 mg/kg/injection, schedule: Q01DX005 (ip), vehicle: Klucel (hydroxypropylcellulose) (HPC) 99 % of control | dose: 25.0 mg/kg/injection, schedule: Q01DX005 (ip), vehicle: Klucel (hydroxypropylcellulose) (HPC) 99 % of control | [1] 101 % of control

[Cl][Sb]([Cl])([Cl])([c]1ccccc1)[c]1ccccc1
inactive: dose: 6.25 mg/kg/injection, schedule: Q01DX009 (ip), vehicle: saline 101 % of control | dose: 12.5 mg/kg/injection, schedule: Q01DX009 (ip), vehicle: saline 98 % of control | dose: 25.0 mg/kg/injection, schedule: Q01DX009 (ip), vehicle: saline 91 % of control

COn1nnc2ccc(N)cc21
inactive: [4] 99 % of control | [5] 102 % of control

CN(C)C1=CC(=O)c2ccccc2C12CO2 (centres undefined)
inactive: dose: 100.0 mg/kg/injection, schedule: Q01DX001 (ip), vehicle: saline with Tween-80 106 % of control | dose: 200.0 mg/kg/injection, schedule: Q01DX001 (ip), vehicle: saline with Tween-80 100 % of control

CCOC(=O)C1=C(O)C[C@]2(O)C3CC=C(C)[C@@H]4CCO[C@](OC)(C[C@H]2C1)[C@]34C(=O)OC (some centres undefined)
inactive: [6] 100 % of control | [7] 96 % of control

Cc1cc(Nc2ccc(O)cc2)nc(N)n1
inactive: [6] 105 % of control | [7] 99 % of control | [8] 113 % of control

CCCCCCN(CCCCCC)CC(O)c1ccc(Cl)c2ccccc12 (centres undefined)
inactive: [6] 115 % of control | [7] 101 % of control | [8] 92 % of control

CC(=O)/C=C/c1ccc(OC(=O)/C=C/c2ccccc2)cc1
inactive: [6] 101 % of control | [7] 100 % of control | [8] 98 % of control

CC1CCC2(OC2(C)C)C(=O)C1 (centres undefined)
inactive: [4] 103 % of control | [5] 103 % of control | dose: 400.0 mg/kg/injection, schedule: Q04DX002 (ip), vehicle: saline 104 % of control

O=C1C2CCC(C2)[CH]1[Hg][Cl] (centres undefined)
inactive: dose: 6.25 mg/kg/injection, schedule: Q01DX009 (ip), vehicle: saline with Tween-80 107 % of control | dose: 12.5 mg/kg/injection, schedule: Q01DX009 (ip), vehicle: saline with Tween-80 112 % of control | dose: 25.0 mg/kg/injection, schedule: Q01DX009 (ip), vehicle: saline with Tween-80 88 % of control

N#C/C(=C/c1cccs1)c1ccc(Cl)cc1
inactive: dose: 100.0 mg/kg/injection, schedule: Q04DX003 (ip), vehicle: Klucel (hydroxypropylcellulose) (HPC) 109 % of control | dose: 200.0 mg/kg/injection, schedule: Q04DX003 (ip), vehicle: Klucel (hydroxypropylcellulose) (HPC) 99 % of control

COc1cc(CC(CC(=O)O)C(=O)O)cc(OC)c1OC (centres undefined)
inactive: [1] 97 % of control | [2] 88 % of control | [3] 97 % of control

COC(=O)C12C=CC(C(=O)OC)(CC1)n1c(=O)n(-c3ccccc3)c(=O)n12
inactive: [6] 107 % of control | [7] 100 % of control | [8] 100 % of control

[Cl][Ni][Cl].c1ccc2[nH]cnc2c1.c1ccc2[nH]cnc2c1
inactive: [9] 95 % of control | [10] 90 % of control | [11] 92 % of control

CC(C)(C)OC1CCC2=CC(=O)CCC21C (centres undefined)
inactive: dose: 100.0 mg/kg/injection, schedule: Q04DX002 (ip), vehicle: other 119 % of control

O=C1C(CCl)(CCl)CCC12CNC(Cl)(Cl)C2 (centres undefined)
inactive: [6] 97 % of control | [7] 97 % of control | [8] 102 % of control

COc1ccc2c3c(cccc13)-c1ccccc1C2=O
inactive: [9] 95 % of control | [10] 91 % of control | [11] 93 % of control

CCCCCCCCCCCCCCCC1=NCCN1
inactive: [6] 105 % of control | [7] 107 % of control

c1ccc2c(c1)C(=NCCCN1CCCCCC1)c1cccn1-2
inactive: [6] 100 % of control | [7] 100 % of control | [8] 100 % of control

Cc1ccc(S(=O)(=O)CCC(=O)c2ccccc2)cc1
inactive: [12] 104 % of control | dose: 200.0 mg/kg/injection, schedule: Q04DX003 (ip), vehicle: saline 100 % of control | dose: 400.0 mg/kg/injection, schedule: Q04DX003 (ip), vehicle: saline 101 % of control

COC(=O)C(CC=C(C)C)C(C)=O (centres undefined)
inactive: dose: 50.0 mg/kg/injection, schedule: Q01DX005 (ip), vehicle: saline 101 % of control | dose: 100.0 mg/kg/injection, schedule: Q01DX005 (ip), vehicle: saline 101 % of control | dose: 200.0 mg/kg/injection, schedule: Q01DX005 (ip), vehicle: saline 105 % of control

CCN1CCC(C2(C(=O)OC)c3ccccc3-c3ccccc32)C1 (centres undefined)
inactive: dose: 6.25 mg/kg/injection, schedule: Q04DX003 (ip), vehicle: saline 106 % of control | dose: 12.5 mg/kg/injection, schedule: Q04DX003 (ip), vehicle: saline 108 % of control | dose: 25.0 mg/kg/injection, schedule: Q04DX003 (ip), vehicle: saline 103 % of control | [12] 104 % of control

NC(N)=NS(=O)(=O)c1ccc(N=c2c3ccccc3n(-c3ccccc3)c3ccccc23)cc1
inactive: [6] 90 % of control | [7] 87 % of control

CC(C)(C)OC(=O)NC(Cc1ccc(O)cc1)C(=O)O (centres undefined)
inactive: [1] 102 % of control | [2] 103 % of control | [3] 96 % of control
